Laboratory results reported in publication PMC4818757, “Small molecule inhibitors of the Dishevelled‐CXXC5 interaction are new drug candidates for bone anabolic osteoporosis therapy” (EMBO Molecular Medicine, 2016).
Entries after “also recorded” stand apart in the source; their conditions may differ.

Legend:
[1] = test system: primary osteoblast cells; assay: ALP staining of primary calvaria (osteoblast) cells; format: cell-based, mouse; settings: 4 days
Protocol: Figure 3 Effect of KY‐02061 on Wnt/β‐catenin pathway, osteoblast differentiation, and ex vivo‐cultured calvaria growth • A MC3T3E1 cells were transfected with pTOPFLASH together with pCMV‐β‐gal. After 24 h, the cells were treated with DMSO, KY‐02061 in DMSO, or 5 μM PolyR‐DBM for 2 days. The luciferase activities of whole‐cell lysates were measured and normalized with β‐galactosidase activities. (n = 3) • B Primary calvaria cells were isolated from the calvariae of 4‐day‐old mice (Manton et al, 2007) and treated with DMSO or KY‐02061 in DMSO for 4 days. ALP activity levels were visualized by ALP staining. • C Primary calvaria cells were treated with DMSO or 5 μM KY‐02061 in DMSO for 14 days. […] The calvaria thicknesses were measured from the stained sections using Image Pro software (E). […] (error bars), and significance was assessed using unpaired Student's t‐test.
MC3T3E1 cells and primary calvaria cells were maintained in supplemented α‐MEM. […] For quantitative real‐time PCR (qRT–PCR), total mRNAs were extracted using TRIzol (Invitrogen), complementary DNAs were prepared using Maxime PCR PreMix (iNtRON Biotechnology, Sungnam, Korea), and the qRT–PCRs were performed using SYBR Premix Ex Taq (TaKaRa, Shiga, Japan) in the StepOnePlus Real‐Time PCR machine (Thermo Fisher Scientific, Waltham, MA). […]

[2] = test system: primary calvaria cells; assay: β-catenin / Runx2 immunofluorescence in primary calvaria cells; format: cell-based, mouse
[3] = molecular target: CYP3A4 (Homo sapiens, UniProt P08684); assay: in vitro; settings: probe fluorogenic P450 substrates
Sequence of CYP3A4 (P08684 whole entry): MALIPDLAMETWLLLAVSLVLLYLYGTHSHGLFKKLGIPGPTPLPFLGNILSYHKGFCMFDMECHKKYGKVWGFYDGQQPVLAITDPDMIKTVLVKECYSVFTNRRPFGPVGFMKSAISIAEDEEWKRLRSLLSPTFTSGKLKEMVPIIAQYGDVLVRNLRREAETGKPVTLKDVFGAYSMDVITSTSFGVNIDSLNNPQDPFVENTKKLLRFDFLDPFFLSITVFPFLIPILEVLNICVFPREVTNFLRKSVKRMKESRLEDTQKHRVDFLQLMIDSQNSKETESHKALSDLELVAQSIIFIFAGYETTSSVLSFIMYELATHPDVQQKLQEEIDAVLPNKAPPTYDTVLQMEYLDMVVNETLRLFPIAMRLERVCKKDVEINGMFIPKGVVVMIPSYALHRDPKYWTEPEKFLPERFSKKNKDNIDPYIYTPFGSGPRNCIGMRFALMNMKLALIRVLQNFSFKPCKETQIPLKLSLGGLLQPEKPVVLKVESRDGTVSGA

Structure (SMILES)	Alkaline phosphatase (ALP) activity ([1]; 2 μM)	ALP activity, dose dependence [1]	nuclear accumulation of β‐catenin ([2]; 2 μM, 2 days)	levels of Runx2 and β‐catenin ([2]; 5 μM, 14 days)	inhibition at 10 µM [3] [%]
CCOC(=O)Cn1c(C(=O)OCC)cc2cc(OS(=O)(=O)c3ccc(C)cc3)ccc21 [KY‐02061]	increased; also recorded: strongest increase	increased in a dose‐dependent manner	strong accumulation	increased levels	–
CCOC(=O)c1cc2cc(O)ccc2n1CC(=O)NCCN1CCCCC1 [KY‐02327]	–	–	–	–	0
